Drawing on ChEMBL document CHEMBL1155316, “Benzo[d]imidazole inhibitors of Coactivator Associated Arginine Methyltransferase 1 (CARM1)--Hit to Lead studies” (Bioorg Med Chem Lett, 2009), this text covers IC50 and Activity for 5 molecules.

Experiment [1] addresses Protein arginine N-methyltransferase 3 (Homo sapiens, UniProt O60678). The experiment can be described thus: Inhibition of PRMT3.
For experiment [2], the target named is Protein arginine N-methyltransferase 1 (Homo sapiens, UniProt Q99873). The experiment in a line: Inhibition of PRMT1.
The target of experiment [3] is T1, Histone-arginine methyltransferase CARM1 (Homo sapiens) (UniProt Q86X55).
T1 sequence (whole entry): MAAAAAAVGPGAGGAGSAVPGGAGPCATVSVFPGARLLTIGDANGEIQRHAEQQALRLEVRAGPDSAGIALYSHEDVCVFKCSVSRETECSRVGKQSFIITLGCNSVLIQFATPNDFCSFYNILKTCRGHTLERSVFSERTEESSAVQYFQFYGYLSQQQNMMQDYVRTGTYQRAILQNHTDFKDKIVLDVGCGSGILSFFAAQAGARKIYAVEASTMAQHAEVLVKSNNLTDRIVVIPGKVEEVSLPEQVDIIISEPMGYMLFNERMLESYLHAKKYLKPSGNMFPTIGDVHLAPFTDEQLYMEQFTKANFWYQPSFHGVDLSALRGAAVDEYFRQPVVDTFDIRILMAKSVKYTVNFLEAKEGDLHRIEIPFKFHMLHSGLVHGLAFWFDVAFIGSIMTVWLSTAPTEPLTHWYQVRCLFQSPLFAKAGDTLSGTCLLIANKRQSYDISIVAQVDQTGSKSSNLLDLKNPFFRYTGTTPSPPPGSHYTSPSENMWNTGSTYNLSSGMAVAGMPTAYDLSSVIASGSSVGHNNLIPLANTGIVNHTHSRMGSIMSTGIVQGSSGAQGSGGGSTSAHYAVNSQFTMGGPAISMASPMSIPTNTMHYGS
The experiment can be described thus: Inhibition of human CARM1 assessed as inhibition of PABP methylation.

Experiment [4] deals with T1, Histone-arginine methyltransferase CARM1 (Homo sapiens). The experiment in a line: Inhibition of human CARM1 assessed as inhibition of HuR methylation.
The target in experiment [5] is T2, Histone-arginine methyltransferase CARM1 (Homo sapiens, UniProt Q86X55).
T2 sequence (Q86X55 whole entry): T1 sequence (whole entry)
The experiment in a line: Inhibition of human CARM1 assessed as inhibition of histone3 methylation.

pIC50: −log10 of the molar value. Active and inactive are the calls of the source. The rule behind the calls is not given here. Some results are limits rather than exact numbers.

Sequence of Protein arginine N-methyltransferase 1 (Q99873 whole entry): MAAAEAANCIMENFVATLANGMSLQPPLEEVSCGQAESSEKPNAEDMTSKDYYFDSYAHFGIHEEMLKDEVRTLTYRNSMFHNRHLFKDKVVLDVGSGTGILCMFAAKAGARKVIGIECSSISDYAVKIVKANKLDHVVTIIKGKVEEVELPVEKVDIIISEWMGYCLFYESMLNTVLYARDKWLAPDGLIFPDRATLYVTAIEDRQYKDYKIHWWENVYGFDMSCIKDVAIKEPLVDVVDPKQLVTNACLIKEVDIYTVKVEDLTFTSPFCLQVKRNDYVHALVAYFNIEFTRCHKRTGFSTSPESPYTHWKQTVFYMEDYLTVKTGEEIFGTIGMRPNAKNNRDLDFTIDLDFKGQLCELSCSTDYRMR
Sequence of Protein arginine N-methyltransferase 3 (O60678 whole entry): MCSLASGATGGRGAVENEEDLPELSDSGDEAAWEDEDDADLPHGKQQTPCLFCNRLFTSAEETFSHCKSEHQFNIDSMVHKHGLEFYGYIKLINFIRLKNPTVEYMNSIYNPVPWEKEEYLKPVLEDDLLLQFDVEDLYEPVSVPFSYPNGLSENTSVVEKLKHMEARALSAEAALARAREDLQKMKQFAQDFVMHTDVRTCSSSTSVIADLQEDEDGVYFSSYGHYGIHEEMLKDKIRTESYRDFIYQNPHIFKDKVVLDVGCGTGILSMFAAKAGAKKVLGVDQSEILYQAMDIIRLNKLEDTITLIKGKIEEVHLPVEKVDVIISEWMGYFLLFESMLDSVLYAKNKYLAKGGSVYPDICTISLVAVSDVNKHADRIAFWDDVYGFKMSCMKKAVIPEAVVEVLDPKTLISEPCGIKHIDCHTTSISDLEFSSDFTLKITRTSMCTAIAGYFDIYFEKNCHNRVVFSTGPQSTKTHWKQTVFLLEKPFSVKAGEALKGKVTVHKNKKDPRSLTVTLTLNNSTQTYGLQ

Consider `CNCCN1CCC(c2cc(C)c3nc(-c4c(OC)cccc4OC)[nH]c3c2)CC1`, for which the pIC50 in experiment [1] and in experiment [2] was < 4.60 throughout. As to `CNCCN1CCC(c2cc(C)c3[nH]c(-c4c(OC)cccc4OC)nc3c2)CC1`, the result in experiment [3] and in experiment [4] was Active. Consider `CN[C@H](C)CN1CCC(c2cc(C)c3nc(-c4cccnc4OC)[nH]c3c2)CC1`, for which, in experiment [5], the pIC50 is < 4.52. For the molecule `C[C@H](N)C(=O)NCc1cccc(-n2nc(C(F)(F)F)cc2-c2nnc(-c3cccc4ncsc34)o2)c1`, the pIC50 in experiment [5] was 7.40. The same measure, in the same setting: for `CN[C@@H](C)CN1CCC(c2cc(C)c3nc(-c4cccnc4OC)[nH]c3c2)CC1` the value was < 4.52.
